For orientation: IC50 means the concentration that gives 50% inhibition.

Chain of phosphorylated active hERK2 enzyme (P28482 whole entry): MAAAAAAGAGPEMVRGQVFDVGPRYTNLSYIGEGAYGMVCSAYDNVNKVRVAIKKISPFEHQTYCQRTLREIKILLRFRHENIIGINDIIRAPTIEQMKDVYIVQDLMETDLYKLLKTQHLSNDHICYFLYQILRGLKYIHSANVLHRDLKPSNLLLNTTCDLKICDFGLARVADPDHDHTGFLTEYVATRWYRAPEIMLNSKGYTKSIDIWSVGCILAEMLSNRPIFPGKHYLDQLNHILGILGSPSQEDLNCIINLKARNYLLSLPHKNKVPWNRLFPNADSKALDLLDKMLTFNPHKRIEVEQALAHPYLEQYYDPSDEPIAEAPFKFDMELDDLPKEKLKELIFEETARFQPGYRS

The first test has as its target phosphorylated active hERK2 enzyme (Homo sapiens (Human), UniProt P28482). The test can be described thus: Active Human ERK2 (hERK2) Activity Assay (IMAP-FP). The class given is biochemical. As to conditions: Table 5, 0.5 nM hERK2, 30 μM ATP, 10 point titration, read-out: AERK2 IC50. In outline:
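IMAP fluorescence-polarization kinase assay: 0.5 nM activated hERK2 with 900 nM unlabeled plus 80 nM labeled peptide and 30 μM ATP, reacted 60 min. Quenched with IMAP beads in binding buffer with 24 mM NaCl; FP read after 60 min equilibration.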
Take `CCNc1n[nH]c2c(C)c(NC(=O)N[C@H](C)c3ccccc3)ncc12` [Example 60, (R)-1-(3-(Ethylamino)-7-methyl-1H-pyrazolo[4,3-c]pyridin-6-yl)-3-(1-phenylethyl)urea]: the IC50 turned out to be 38.8 nM.

With `COC[C@@H](NC(=O)Nc1cc2[nH]nc(N3CCOCC3)c2cn1)c1ccccc1` [Example 30, 1-[(1S)-2-methoxy-1-phenylethyl]-3-(3-morpholin-4-yl-1H-pyrazolo[4,3-c]pyridin-6-yl)urea], the concentration for half-maximal inhibition (IC50) stood at 0.4 nM.

With `COC[C@@H](NC(=O)Nc1cc2[nH]nc(N3CCN(C)CC3)c2cn1)c1ccccc1` [Example 14, 1-[(1S)-2-methoxy-1-phenylethyl]-3-[3-(4-methylpiperazin-1-yl)-1H-pyrazolo[4,3-c]pyridin-6-yl]urea], the IC50 was determined as 21.8 nM.

The test is the same for the next values; noted with them: Table 6, 0.5 nM hERK2, 30 μM ATP, 10 point titration, read-out: AERK2 IC50.
On to `COC1CCN(c2n[nH]c3cc(NC(=O)N[C@H](COC(F)F)c4ccccc4)ncc23)CC1` [Example 426, 1-[(1S)-2-(difluoromethoxy)-1-phenylethyl]-3-[3-(4-methoxy-piperidin-1-yl)-1H-pyrazolo[4,3-c]-pyridin-6-yl]urea], for which the IC50 amounted to 1 nM.

Regarding `CC(C)(O)[C@@H](NC(=O)Nc1cc2[nH]nc(N3CCC3)c2c(CO)n1)c1ccc(F)cc1` [Example 101, 1-[3-azetidin-1-yl-4-(hydroxymethyl)-1H-pyrazolo[4,3-c]-pyridin-6-yl]-3-[(1S)-1-(4-fluorophenyl)-2-hydroxy-2-methylpropyl]urea], the IC50 amounted to 0.9 nM.

As for `Nc1n[nH]c2c(Cl)c(NC(=O)N[C@H](COC(F)F)c3ccccc3)ncc12` [Example 363, 1-(3-amino-7-chloro-1H-pyrazolo[4,3-c]pyridin-6-yl)-3-[(1S)-2-(difluoromethoxy)-1-phenylethyl]urea], the IC50 amounted to 52.2 nM.

With `CC1CC(Nc2n[nH]c3cc(NC(=O)N[C@H](C)c4ccccc4)ncc23)C(C)O1` (stereo partly drawn) [Example 78, 1-(3-((2,5-dimethyltetrahydro-furan-3-yl)amino)-1H-pyrazolo[4,3-c]-pyridin-6-yl)-3-((R)-1-phenylethyl)urea], the IC50 was 7.4 nM.

As for `O=C(Nc1cc2[nH]nc(N3CC4CC3CO4)c2cn1)N[C@H](CO)c1ccccc1` (stereo partly drawn) [Example 450, 1-[(1S)-2-hydroxy-1-phenylethyl]-3-[3-(2-oxa-5-azabicyclo[2.2.1]-hept-5-yl)-1H-pyrazolo[4,3-c]-pyridin-6-yl]urea], the IC50 turned out to be 4.3 nM.

Consider `CCNc1n[nH]c2cc(NC(=O)NC(c3ccc(F)cc3)C(C)(C)OC)ncc12` (stereo not drawn) [Example 430, 1-[3-(ethylamino)-1H-pyrazolo[4,3-c]pyridin-6-yl]-3-[1-(4-fluorophenyl)-2-methoxy-2-methylpropyl]urea], for which the IC50 is 0.6 nM.

For `CCNc1n[nH]c2cc(NC(=O)NCc3cccc(F)c3)ncc12` [Example 241, 1-[3-(ethylamino)-1H-pyrazolo[4,3-c]pyridin-6-yl]-3-(3-fluorobenzyl)-urea], the IC50 was found to be 11.8 nM.

As to `CC(C)(O)[C@@H](NC(=O)Nc1cc2[nH]nc(NC(=O)N3CCOCC3)c2cn1)c1ccc(F)cc1` [Example 133, N-[6-({[(1S)-1-(4-fluorophenyl)-2-hydroxy-2-methylpropyl]-carbamoyl}amino)-1H-pyrazolo[4,3-c]pyridin-3-yl]-morpholine-4-carboxamide], the concentration for half-maximal inhibition (IC50) amounted to 2.4 nM.

On to `CCNC(=O)Nc1n[nH]c2cc(NC(=O)N[C@H](C)c3ccccc3)ncc12` [Example 313, (R)-1-(3-(3-ethylureido)-1H-pyrazolo[4,3-c]pyridin-6-yl)-3-(1-phenylethyl)urea], for which the IC50 turned out to be 5.6 nM.

Take `Cc1nc(NC(=O)N[C@@H](c2ccc(F)cc2)C(C)(C)O)cc2[nH]nc(N3CCC3)c12` [Example 110, 1-(3-azetidin-1-yl-4-methyl-1H-pyrazolo[4,3-c]-pyridin-6-yl)-3-[(1S)-1-(4-fluorophenyl)-2-hydroxy-2-methylpropyl]urea]: the IC50 amounted to 1.3 nM.

Consider `CC(C)(O)[C@@H](NC(=O)Nc1cc2[nH]nc(NC(=O)N3CCC(F)(F)C3)c2cn1)c1ccc(F)cc1` [Example 131, 3,3-difluoro-N-[6-({[(1S)-1-(4-fluorophenyl)-2-hydroxy-2-methylpropyl}-carbamoyl}amino)-1H-pyrazolo[4,3-c]pyridin-3-yl]-pyrrolidine-1-carboxamide], for which the IC50 came to 1.5 nM.

Regarding `CC(CS(C)(=O)=O)Nc1n[nH]c2cc(NC(=O)N[C@H](C)c3ccccc3)ncc12` (stereo partly drawn) [Example 192, 1-(3-{[1-methyl-2-(methylsulfonyl)-ethyl]amino}-1H-pyrazolo[4,3-c]-pyridin-6-yl)-3-[(1R)-1-phenylethyl]urea], the IC50 was 79.8 nM.

In the case of `CC(C)(O)[C@@H](NC(=O)Nc1cc2[nH]nc(N3CCC3)c2cn1)c1ccccc1` [Example 104, 1-(3-azetidin-1-yl-1H-pyrazolo[4,3-c]pyridin-6-yl)-3-[(1S)-2-hydroxy-2-methyl-1-phenylpropyl]urea], the IC50 was 1.6 nM.

As to `Nc1n[nH]c2cc(NC(=O)N[C@@H]3CCOc4ccccc43)ncc12` [Example 258, 1-(3-amino-1H-pyrazolo[4,3-c]pyridin-6-yl)-3-[(4R)-3,4-dihydro-2H-chromen-4-yl]-urea], the IC50 came out at 103 nM.

On to `C[C@@H](NC(=O)Nc1cc2[nH]nc(NCC3CCOCC3)c2cn1)c1ccccc1` [Example 166, 1-[(1R)-1-phenylethyl]-3-{3-[(tetrahydro-2H-pyran-4-yl-methyl)amino]-1H-pyrazolo[4,3-c]pyridin-6-yl}urea], for which the IC50 amounted to 1.7 nM.

In the case of `C[C@@H](NC(=O)Nc1cc2[nH]nc(N3CCc4scnc4C3)c2cn1)c1ccc(F)cc1` [Example 63, 1-[3-(6,7-dihydro[1,3]thiazolo-[4,5-c]pyridin-5(4H)-yl)-1H-pyrazolo[4,3-c]pyridin-6-yl]-3-[(1R)-1-(4-fluorophenyl)ethyl]-urea], the half-inhibitory concentration (IC50) was determined as 5.8 nM.

Regarding `C[C@@H](NC(=O)Nc1cc2[nH]nc(N(CC3CC3)CC3CC3)c2cn1)c1ccccc1` [Example 160, 1-{3-[bis(cyclopropyl-methyl)amino]-1H-pyrazolo[4,3-c]-pyridin-6-yl}-3-[(1R)-1-phenylethyl]urea], the IC50 was 279 nM.

On to `COC(=O)Nc1n[nH]c2cc(NC(=O)N[C@H](C)c3ccc(Cl)c(C)c3)ncc12` [Example 304, methyl [6-({[(1R)-1-(4-chloro-3-methyl-phenyl)ethyl}-carbamoyl}amino)-1H-pyrazolo[4,3-c]pyridin-3-yl]-carbamate], for which the IC50 came to 3.4 nM.

Regarding `COc1nc(NC(=O)N[C@H](C)c2ccccc2)cc2[nH]nc(N)c12` [Example 452, 1-(3-amino-4-methoxy-1H-pyrazolo[4,3-c]-pyridin-6-yl)-3-[(1R)-1-phenylethyl]urea], the IC50 worked out at 0.7 nM.

In the case of `C[C@@H](NC(=O)Nc1cc2[nH]nc(NC(=O)C3CCOCC3)c2cn1)c1ccccc1` [Example 181, N-[6-({[(1R)-1-phenylethyl]-carbamoyl}amino)-1H-pyrazolo[4,3-c]pyridin-3-yl]-tetrahydro-2H-pyran-4-carboxamide], the IC50 is 4.3 nM.

As to `C[C@@H]1Cc2nc(NC(=O)N[C@H](C)c3ccccc3)cc3[nH]nc(c23)N1` [Example 138, 1-((R)-4-methyl-1,3,4,5-tetrahydropyrazolo[3,4,5-de][1,6]naphthyridin-7-yl)-3-((R)-1-phenylethyl)urea], the IC50 is 5.9 nM.

Consider `CC(C)COC(=O)Nc1n[nH]c2cc(NC(=O)N[C@H](C)c3ccccc3)ncc12` [Example 219, 2-methylpropyl [6-({[(1R)-1-phenylethyl}-carbamoyl}amino)-1H-pyrazolo[4,3-c]pyridin-3-yl]-carbamate], for which the IC50 came to 32.5 nM.

Take `CCNc1n[nH]c2cc(NC(=O)N[C@H](C)c3ccc(F)c(Cl)c3)ncc12` [Example 245, 1-[(1R)-1-(3-chloro-4-fluorophenyl)ethyl]-3-[3-(ethylamino)-1H-pyrazolo[4,3-c]pyridin-6-yl]urea]: the IC50 worked out at 6.7 nM.

Regarding `C[C@@H](NC(=O)Nc1cc2[nH]nc(NCC(=O)N(C)C)c2cn1)c1ccccc1` [Example 347, N,N-dimethyl-N~2~-[6-({[(1R)-1-phenylethyl]-carbamoyl}-amino)-1H-pyrazolo[4,3-c]-pyridin-3-yl]-glycinamide], the IC50 worked out at 18.3 nM.

`COC(=O)Nc1n[nH]c2cc(NC(=O)N[C@@H](c3ccccc3)C3(O)CCC3)ncc12` [Example 385, methyl [6-({[(S)-(1-hydroxycyclo-butyl)(phenyl)-methyl]carbamoyl}amino)-1H-pyrazolo[4,3-c]-pyridin-3-yl]-carbamate]: the IC50 was determined as 2 nM.

Regarding `C[C@@H](NC(=O)Nc1cc2[nH]nc(N3CCC(O)CC3)c2cn1)c1ccccc1` [Example 409, 1-[3-(4-hydroxypiperidin-1-yl)-1H-pyrazolo[4,3-c]-pyridin-6-yl]-3-[(1R)-1-phenylethyl]urea], the IC50 came out at 2.4 nM.

Take `CC(C)(O)[C@@H](NC(=O)Nc1cc2[nH]nc(N3CCOCC3)c2cn1)c1ccccc1` [Example 433, 1-[(1S)-2-hydroxy-2-methyl-1-phenylpropyl]-3-(3-morpholin-4-yl-1H-pyrazolo[4,3-c]-pyridin-6-yl)urea]: the IC50 was 0.5 nM.

Turning to `C[C@@H](O)[C@@H](NC(=O)Nc1cc2[nH]nc(N3CC4CC3CO4)c2cn1)c1ccccc1` (stereo partly drawn) [Example 111, 1-[(1S,2R)-2-hydroxy-1-phenylpropyl]-3-[3-(2-oxa-5-azabicyclo[2.2.1]-hept-5-yl)-1H-pyrazolo[4,3-c]-pyridin-6-yl]urea], the IC50 was 0.5 nM.

`COC[C@@H](NC(=O)Nc1cc2[nH]nc(Nc3cnn(C)c3)c2cn1)c1ccccc1` [Example 370, 1-[(1S)-2-methoxy-1-phenylethyl]-3-{3-[(1-methyl-1H-pyrazol-4-yl)-amino]-1H-pyrazolo[4,3-c]-pyridin-6-yl}urea]: the IC50 amounted to 19.7 nM.

Turning to `CCNc1n[nH]c2cc(NC(=O)NC(c3ccc(F)cc3)C(C)(C)O)ncc12` (stereo not drawn) [Example 429, 1-[3-(ethylamino)-1H-pyrazolo[4,3-c]pyridin-6-yl]-3-[1-(4-fluorophenyl)-2-hydroxy-2-methylpropyl]urea], the IC50 worked out at 1.1 nM.

Values taken from patent US9233979B2, “Compounds that are ERK inhibitors” (Merck Sharp & Dohme Corp., priority 2012, dated 2016).
